Laboratory results taken from paper PMC8226672, “Trimethoxylated Halogenated Chalcones as Dual Inhibitors of MAO-B and BACE-1 for the Treatment of Neurodegenerative Disorders” (Pharmaceutics, 2021).
Converted amounts (≈) assume the structure as drawn. Like-named read-outs stand apart in the source and are kept apart here.

Columns and labels:
[1] = biological target: T1, MAO-B (Homo sapiens, UniProt P27338); assay: MAO-B inhibition (recombinant enzyme, benzylamine substrate); assay type: biochemical; settings: for remaining activity at 10 µM: read-out: Residual Activity (%) MAO-B; for SI (selectivity index): for MAO-B as compared with MAO-A; for IC50: reference compounds after preincubation with enzymes for 30 min
T1 sequence (P27338 1-520): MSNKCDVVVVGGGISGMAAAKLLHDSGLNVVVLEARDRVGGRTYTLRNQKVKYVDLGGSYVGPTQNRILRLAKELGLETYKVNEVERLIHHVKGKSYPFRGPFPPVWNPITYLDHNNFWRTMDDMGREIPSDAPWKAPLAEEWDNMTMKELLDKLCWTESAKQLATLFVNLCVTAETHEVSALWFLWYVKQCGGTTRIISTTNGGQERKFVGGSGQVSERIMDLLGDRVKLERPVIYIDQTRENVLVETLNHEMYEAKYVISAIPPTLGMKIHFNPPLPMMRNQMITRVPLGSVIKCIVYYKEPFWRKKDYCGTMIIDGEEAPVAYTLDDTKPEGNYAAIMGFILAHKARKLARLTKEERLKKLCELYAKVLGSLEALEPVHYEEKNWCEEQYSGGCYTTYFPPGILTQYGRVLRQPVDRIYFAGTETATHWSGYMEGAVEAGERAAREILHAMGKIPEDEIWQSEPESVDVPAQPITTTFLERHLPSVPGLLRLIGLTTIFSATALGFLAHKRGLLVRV
Description: (§1) MAO events were assessed with recombinant MAO-A and MAO-B, as well as the substrates kynuramine (0.06 mM) and benzylamine (0.3 mM). […] The IC50 value of CH5 for BACE-1 was also analyzed.
(§2) The inhibitory actions of the six molecules against MAO-A, MAO-B, and BACE-1 were first tested at 10 µM. Initially, the IC50 values of the compounds for MAOs were calculated.

[2] = Parallel artificial membrane permeability assay (PAMPA) for BBB permeability
Description: (§6) The CNS bioavailability of the molecules was confirmed by a parallel artificial membrane permeability assay (PAMPA) by Di et al. [61].

[3] = biological target: T2, β-secretase (BACE-1) (Homo sapiens, UniProt P56817); assay: BACE-1 inhibition (β-secretase assay kit, fluorescence); assay type: biochemical; settings: for remaining activity at 10 µM: read-out: Residual Activity (%) BACE-1; for IC50: reference compounds after preincubation with enzymes for 30 min
T2 construct: purchased
T2 sequence (P56817 46-501): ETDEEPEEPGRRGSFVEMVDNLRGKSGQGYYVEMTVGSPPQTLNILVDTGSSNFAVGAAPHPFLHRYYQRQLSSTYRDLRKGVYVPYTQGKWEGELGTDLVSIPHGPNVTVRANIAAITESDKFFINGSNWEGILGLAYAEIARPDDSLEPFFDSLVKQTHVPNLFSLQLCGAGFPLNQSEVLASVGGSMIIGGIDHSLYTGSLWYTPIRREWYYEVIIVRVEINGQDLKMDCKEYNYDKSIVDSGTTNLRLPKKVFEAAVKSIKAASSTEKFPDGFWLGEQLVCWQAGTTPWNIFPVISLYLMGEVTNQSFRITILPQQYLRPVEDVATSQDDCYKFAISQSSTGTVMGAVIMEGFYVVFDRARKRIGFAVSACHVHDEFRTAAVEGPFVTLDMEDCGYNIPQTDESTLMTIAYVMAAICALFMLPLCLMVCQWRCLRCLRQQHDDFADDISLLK
Description: as §1, §2

[4] = biological target: T3, recombinant MAO-A (Homo sapiens, UniProt P21397); assay: MAO-A inhibition (recombinant enzyme, kynuramine substrate); assay type: biochemical; settings: for remaining activity at 10 µM: read-out: Residual Activity (%) MAO-A; for IC50: reference compounds after preincubation with enzymes for 30 min
T3 sequence (P21397 1-527): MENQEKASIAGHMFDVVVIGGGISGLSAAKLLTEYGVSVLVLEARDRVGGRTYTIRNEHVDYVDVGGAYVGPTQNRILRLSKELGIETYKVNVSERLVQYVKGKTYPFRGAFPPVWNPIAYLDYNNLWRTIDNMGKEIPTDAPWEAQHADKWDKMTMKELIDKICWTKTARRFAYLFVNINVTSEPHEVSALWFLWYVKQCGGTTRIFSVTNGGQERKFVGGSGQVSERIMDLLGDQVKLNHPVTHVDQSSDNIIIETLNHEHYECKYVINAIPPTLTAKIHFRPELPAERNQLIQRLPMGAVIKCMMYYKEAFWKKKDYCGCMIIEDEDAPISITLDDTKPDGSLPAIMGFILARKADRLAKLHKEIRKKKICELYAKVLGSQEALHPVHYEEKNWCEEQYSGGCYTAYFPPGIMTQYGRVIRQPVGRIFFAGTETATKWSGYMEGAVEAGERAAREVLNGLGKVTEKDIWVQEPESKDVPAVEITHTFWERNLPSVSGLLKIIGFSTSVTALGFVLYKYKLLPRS
Description: as §1, §2

[5] = In vitro toxicity, MTT cell viability assay; assay type: cell-based; settings: African green monkey; for IC50 at 48 h: Vero cells (African green monkey kidney cell line), 1 to 500 µg/mL; for viability at 48 h: Vero cells (kidney cell line), read-out: Percentage of viable cells
Description: (§3) The lead molecules CH4 and CH5 in the current series were further evaluated for their cytotoxic nature and ROS scavenging ability by the previously reported procedure (Supplementary Material).
An in vitro toxicity evaluation of CH4 and CH5 was carried out using an MTT assay. We used the African Green Monkey kidney cell line (Vero) as a valuable in vitro model for basal toxicity studies. To check the toxicity of the tested compounds, the Vero cell line was incubated with different concentrations of CH4 and CH5 (1 to 500 µg/mL), and the relative cell viability was measured after 48 h. […] The result of the cell viability assay was represented as a dose–response curve using the GraphPad Prism 6.0 software (USA). […] The reduction in cell number and also the membrane damage were very evident in treatment with CH4 and CH5 at IC50 and higher concentrations, as analyzed by phase-contrast microscope. These two experiments strongly support that CH4 and CH5 are one hundred times safer than the effective concentration of one micromolar (Figure 3C and Figure 4C). […]
1.2. Cytotoxicity Studies
The cell line of Vero (African green monkey kidney cells) was procured from NCCS, Pune and were grown in liquid medium (DMEM) containing, 100 ug/mL penicillin, 100 µg/mL streptomycin, and 10% Fetal Bovine Serum (FBS) and preserved under an atmosphere of 5% CO2 at 37 °C. The CH4 and CH5 sample was assayed for in vitro cytotoxicity by MTT assay using the cultured Vero cells. Briefly, the cultured Vero cells were produced by cell dissociation with trypsin (trypsinization), collectively in a 15 mL tube. At a density of 1×10^5 cells/mL cells/well (200 µL) the cells were plated for 24-48 hour at 37°C into 96-well tissue culture plate in DMEM medium containing 10 % FBS and 1% antibiotic solution. The wells were washed with sterile Phosphate buffered saline and further allowed to react with varying concen-trations of the CH4 and CH5 sample in a serum free DMEM medium. The samples were triplicated and the cells were kept for incubation at 37°C for 24 h in a humidified 5% CO2 incubator. MTT (20 µL of 5 mg/mL) was added in-to each well after the incubation and the cells were incubated for another 2–4 […]
(§4) h. The end point was determined by the purple precipitation which was clearly seen under an inverted microscope. […] The absorbance at 570 nm was measured using a micro plate reader (Thermo Fisher Scientific, USA). The IC50 value and the percentage cell viability was calculated using GraphPad Prism 8.0 software (USA). […]
(§5) DMEM medium and incubated at 37°C for 24 h. […] After the incubation period, the cells were treated with 100 µM/mL of 30% H2O2 and the production of ROS was evaluated immediately by fluorescence imaging system (ZOE, BIO-

[6] = biological target: T1, MAO-B; assay: MAO-B kinetic study (Lineweaver–Burk and secondary plots); assay type: biochemical; settings: for Type of MAO-B inhibition: Lineweaver–Burk plots; for Ki: secondary plots of slopes vs. inhibitor concentrations
Description: MAO events were assessed with recombinant MAO-A and MAO-B, as well as the substrates kynuramine (0.06 mM) and benzylamine (0.3 mM). The kinetics of MAO-B were analyzed under 2.4 × Km (i.e., 0.051 mM) of benzylamine. BACE-1 was measured using a β-secretase (BACE-1) assay kit at 320 nm for excitation and 405 nm for emission using a fluorescence spectrometer. […] The IC50 value of CH5 for BACE-1 was also analyzed.
The inhibitory actions of the six molecules against MAO-A, MAO-B, and BACE-1 were first tested at 10 µM. Initially, the IC50 values of the compounds for MAOs were calculated. At three inhibitory concentrations and five substrate concentrations, kinetic tests were conducted on CH4 and CH5, which inhibited MAO-B most potently.
Kinetic experiments were carried out at five concentrations of the substrates and three inhibitor concentrations.

[7] = system: Vero cells; assay: ROS assay in H2O2-treated Vero cells; assay type: cell-based, African Green Monkey; settings: Vero cells treated with H2O2; compounds at IC50 conc. (CH4 198.5 µg/mL, CH5 126.4 µg/mL)
Text: as §3
Our next attempt was to study the effect of CH4 and CH5 on inhibiting the excess reactive oxygen species (ROS) involved in the pathogenesis of neurodegenerative diseases. This ROS causes neuronal damage via oxidative damage in the brain during neurodegenerative diseases. We examined the intracellular ROS generation on Vero cell cultures after exposure to exogenous H2O2. […] Based on this observation, it is understood that the disruption of the balance between pro-oxidant and antioxidant levels can be retained by CH4 and CH5 at IC50 concentrations. […]
as §4, with “microscope. At the end, the medium along with MTT (220 µL) were used for the aspiration of the wells and later washed with 1X PBS (200 µL).” for “microscope.”
as §5

[8] = biological target: T1, MAO-B; assay: MAO-B inhibitor reversibility analysis by dialysis; settings: for Relative activity, dialyzed (AD): after dialysis; for Relative activity, dialyzed (AD) / Relative activity, undialyzed (AU): CH4 1.68 µM, CH5 0.92 µM, lazabemide […], pargyline 0.28 µM; for Reversibility of MAO-B inhibition: dialysis; for Relative activity, undialyzed (AU): preincubation 30 min
Description: Reversibility patterns were analyzed by comparing the activities of dialyzed (AD) and undialyzed (AU) samples [58].
The relative activities for undialyzed (AU) and dialyzed (AD) samples were compared to determine the reversibility patterns.

[9] = PAMPA
Description: as §6

| Structure (SMILES) | remaining activity at 10 µM [1] | Papp [2] | remaining activity at 10 µM [3] | remaining activity at 10 µM [4] | SI (selectivity index) [1] | IC50 [1] | IC50 at 48 h [5] | viability at 48 h ([5]; up to 200 µg/mL) | Type of MAO-B inhibition [6] | Ki [6] | IC50 [3] | IC50 [4] | Effect on ROS levels [7] | Relative activity, dialyzed (AD) [8] | Reversibility of MAO-B inhibition [8] | Relative activity, undialyzed (AU) [8] | viability at 48 h ([5]; up to 100 times the effective concentration) | Prediction (CNS permeability class) [9] |
| --- | --- | --- | --- | --- | --- | --- | --- | --- | --- | --- | --- | --- | --- | --- | --- | --- | --- | --- |
| COc1cc(OC)c(C(=O)/C=C/c2ccc(Cl)cc2)c(OC)c1 [CH1, (E)-3-(4-chlorophenyl)-1-(2,4,6-trimethoxyphenyl)prop-2-en-1-one] | 70.7 ± 2.16% | 13.2 ± 0.33 ×10⁻⁶ cm/s | 61.3 ± 0.078% | 90.1 ± 7.51% |  |  |  |  |  |  |  |  |  |  |  |  |  |  |
| COc1cc(OC)c(C(=O)/C=C/c2ccc(Br)cc2)c(OC)c1 [CH2, (E)-3-(4-bromophenyl)-1-(2,4,6-trimethoxyphenyl)prop-2-en-1-one] | 84.3 ± 3% | 14.1 ± 0.8 ×10⁻⁶ cm/s | 57.2 ± 0.46% | 92.4 ± 1.1% |  |  |  |  |  |  |  |  |  |  |  |  |  |  |
| COc1cc(OC)c(C(=O)/C=C/c2ccc(F)cc2)c(OC)c1 [CH3, (E)-3-(4-fluorophenyl)-1-(2,4,6-trimethoxyphenyl)prop-2-en-1-one] | 75.4 ± 0.27% | 15.3 ± 0.71 ×10⁻⁶ cm/s | 59.7 ± 0.077% | 94.9 ± 7.19% |  |  |  |  |  |  |  |  |  |  |  |  |  |  |
| COc1ccc(C(=O)/C=C/c2ccc(Cl)cc2)c(OC)c1OC [CH4, (E)-3-(4-chlorophenyl)-1-(2,3,4-trimethoxyphenyl)prop-2-en-1-one] |  | 14.6 ± 0.26 ×10⁻⁶ cm/s | 54.3 ± 2.2% | 63.7 ± 1.02% | 15.1 | 0.84 ± 0.025 µM | 198 µg/mL (≈ 596 µM) | > 90% | competitive inhibitors | 0.68 ± 0.17 µM | 13.6 ± 0.094 µM | 12.7 ± 0.23 µM | decrease in ROS levels | 96.9% | reversible inhibitors | 30.9% |  |  |
| COc1ccc(C(=O)/C=C/c2ccc(Br)cc2)c(OC)c1OC [CH5, (E)-3-(4-bromophenyl)-1-(2,3,4-trimethoxyphenyl)prop-2-en-1-one] |  | 15.7 ± 0.22 ×10⁻⁶ cm/s | 64.3 ± 0.74% | 66.7 ± 3.96% | 31.3 | 0.46 ± 0.12 µM | 126 µg/mL (≈ 335 µM) |  | competitive inhibitors | 0.31 ± 0.014 µM | 19.8 ± 0.12 µM | 14.4 ± 1.1 µM | decrease in ROS levels | 73.8% | reversible inhibitors | 37.2% | > 90% |  |
| COc1ccc(C(=O)/C=C/c2ccc(F)cc2)c(OC)c1OC [CH6, (E)-3-(4-fluorophenyl)-1-(2,3,4-trimethoxyphenyl)prop-2-en-1-one] | 19.6 ± 2.17% | 15.2 ± 0.26 ×10⁻⁶ cm/s | 66.7 ± 0.45% | 92.1 ± 0.75% |  | 4.17 ± 0.23 µM |  |  |  |  |  |  |  |  |  |  |  |  |
| CN1C(C(=O)Nc2ccccn2)=C(O)c2ccccc2S1(=O)=O [Piroxicam] |  |  |  |  |  |  |  |  |  |  |  |  |  |  |  |  |  | CNS+/− |
